Row | melting point [°C] | SMILES
1 | 63 | O=C(O)Cc1ccccc1F
2 | 115 to 117 | CC(=O)Nc1ccc(OC(F)(F)F)cc1
3 | 105 to 106 | O=C(c1cccc2ccccc12)C(O)c1ccccc1 (stereo unspecified)
4 | 185 | Cc1ccc(C2C(C#N)=C(N)Oc3[nH]nc(C(F)(F)F)c32)cc1 (stereo unspecified)
5 | 141 to 142 | Cc1noc(C)c1C(=O)O
6 | 166 | O=C(O)CC(CC(=O)O)c1ccc(Cl)cc1
7 | 38 | CC1C(=O)C2(C)CCC1C2(C)C (stereo unspecified)
8 | 62 | O=Cc1ccc(F)cc1Cl
9 | 233 to 235 | CSc1nc(N)c2ccccc2n1
10 | 136 | CC(C)(C)C(C)(C)Cl
11 | 48 to 49 | Brc1ccc(Oc2ccc(Br)c(Br)c2)cc1
12 | 125 | N#Cc1ccc(O)cc1F
13 | 197 to 199 | O=CC(C=O)c1cnc2ccccc2n1
14 | 34 | OCCCCCCCCCCCCBr
15 | 72 | COc1ccccc1NC(=O)c1cncc(Cl)n1
16 | 75 to 79 | N[C@@H](CO)c1ccccc1
17 | 98 to 99 | CC(C)(C)OC(=O)NCc1ccc(CO)cc1
18 | 77.5 | CCN(CC)c1ccc([N+](=O)[O-])cc1
19 | 238 to 241 | O=C(O)c1cc2cc([N+](=O)[O-])ccc2s1
20 | 120 to 123 | Cc1ccc(F)cc1NC(N)=S
21 | 182 | O=[N+]([O-])c1ccc(SSc2ccc([N+](=O)[O-])cc2)cc1
22 | 199 to 201 | Clc1ccc(Cc2c(N=Cc3ccccc3Cl)n[nH]c2N=Cc2ccccc2Cl)cc1
23 | 217 to 220 | O=C(O)c1ccc(Sc2ccc(Cl)cc2)c([N+](=O)[O-])c1

Row | melting point [°C] | SMILES
24 | 266 to 268 | O=C(O)c1ccc2[nH]c3c(c2c1)CCCC3
25 | 86 | C=CN1C(=O)c2ccccc2C1=O
26 | 170 to 173 | CC(C)(C)c1cc(C(C)(C)C)c(N=O)c(C(C)(C)C)c1
27 | 138 to 140 | O=c1c(Cl)c(SCc2ccccc2)cnn1-c1ccccc1
28 | 64 to 69 | Cc1cc(CS)c(CS)cc1C
29 | 84 to 85 | CCOC(=O)c1c(C)oc(N)c1C(=O)OCC
30 | 92 | Cc1ccc([Si](C)(c2ccc(C)cc2)c2ccc(C)cc2)cc1
31 | 202 | CCOC(=O)c1ncn2c1CN(C)C(=O)c1cc(F)ccc1-2
32 | 184 | COc1ccc(/C=C2\CCCC3=C2NC(=S)NC3c2ccc(OC)cc2)cc1 (stereo unspecified)
33 | 152 | Cn1c(=O)c2c(ncn2CCOC(=O)c2cccnc2)n(C)c1=O
34 | 55.5 | Cc1c([N+](=O)[O-])cc(C(C)C)c(O)c1[N+](=O)[O-]
35 | 157 to 161 | CC(C)c1ccc(C=CC(=O)O)cc1
36 | 34 | CCCCCCCCN(CCCCCCCC)CCCCCCCC
37 | 166 to 168 | S=C=NC12CC3CC(CC(C3)C1)C2
38 | 222 | O=C1NC(=O)C(=Cc2ccccc2)N1
39 | 140 to 143 | Cc1cc(C(=O)NCc2ccc(Cl)cc2)no1
40 | -32.1 | CC(O)C1CC1 (stereo unspecified)
41 | 115 to 117 | O=C(NCCCCO)OCC1c2ccccc2-c2ccccc21
42 | 179 | CN1N=C(C(F)(F)F)CC1=O
43 | 240 to 241 | Cn1c(=O)n(-c2cccc(Cl)c2)c(=O)c2c3c(sc21)CCCC3
44 | 140 | CC1(C)CC(C)(c2ccc(O)cc2)c2ccccc2O1 (stereo unspecified)
45 | 153 | COc1ccc(NC(=O)c2ccccc2)cc1
46 | 206 | N[C@@H](CCCC(=O)O)C(=O)O

Row | melting point [°C] | SMILES
47 | 174 to 177 | COc1ccc(Oc2ccc(C(N)=NO)cc2[N+](=O)[O-])cc1
48 | 290 | Nc1nc(O)cc(C(F)(F)F)n1
49 | 119 | COc1cccc2c(=O)c(=O)c12
50 | 84 | CC(C)(CCC(=O)O)C(=O)O
51 | 310 | O=C1N=NC(=O)c2cc3c(cc21)CCC3
52 | 140 to 142 | O=C(O)C1CCN(c2nccc(C(F)(F)F)n2)CC1
53 | 60 | ClC1(c2ccccc2)Cc2ccccc21 (stereo unspecified)
54 | 90 | O=C(CCl)c1cccc(C(=O)CCl)c1
55 | 316 | O=c1c(O)c(-c2ccc(O)c(O)c2)oc2cc(O)cc(O)c12
56 | 290 | Nc1ccc2c(c1N)C(=O)c1ccccc1C2=O
57 | 15 | C/C=C/C=C/C(=O)OC
58 | 86 | COC(=O)Cc1c(Cl)[nH]c(C)c1C(=O)OC
59 | 64 | COc1c(C)cc(N)cc1C
60 | 195 to 198 | O=C(O)CN1C(=O)c2ccccc2C1=O
61 | 92 to 94 | Cc1cc(Br)cnc1N
62 | 144 to 146 | O=C(O)C1CC(=O)N(Cc2cccs2)C1 (stereo unspecified)
63 | 80 | COc1ccc2ccccc2c1Br
64 | 196 | CSc1nn2c(=O)c(C)nnc2s1
65 | 91 | CCCC(=O)c1ccc(O)cc1
66 | 78 | O=C(O)CSc1ccc(F)cc1
67 | 154 to 160 | O=C(O)C(F)(F)C(F)(F)C(F)(F)C(F)(F)C(F)(F)C(F)(F)C(F)(F)C(F)(F)C(=O)O
68 | 174 | N#C/C(=C/c1ccco1)c1nc(-c2ccc(Br)cc2)cs1
69 | 86 | Cc1sc(-c2ccccn2)nc1-c1ccccc1

Row | melting point [°C] | SMILES
70 | 123 | N#CC(C(=O)N1CCOCC1)=C(SCc1ccccc1)SCc1ccccc1
71 | 85 to 87 | O=C(Cl)c1csc(-c2cccc(Cl)c2)n1
72 | 81 | O=C1C2CCC1C1CCC2O1
73 | 96.5 | c1ccc(C2=NCCN2)cc1
74 | 64 to 67 | COC(=O)[C@@H](C)Oc1ccc(O)cc1
75 | 92 to 94 | O=C(OC1OC(COCc2ccccc2)C(OCc2ccccc2)C1OCc1ccccc1)c1ccc([N+](=O)[O-])cc1 (stereo unspecified)
76 | 100 to 101 | Cc1ccc(-c2ccc(C=CC(=O)c3ccccc3)o2)cc1
77 | 98 | CC(C)(C)[Si](Cl)(Cl)Cl
78 | 122 to 125 | O=C(O)c1ccc(F)c(F)c1
79 | -37 | COC(=O)CCCC(=O)OC
80 | 249 | O=C1C(C(O)c2ccc(Cl)cc2Cl)C(C(F)(F)F)=NN1c1ccccc1 (stereo unspecified)
81 | 116 | COc1c(Cl)c(Cl)c(O)c(Cl)c1Cl
82 | 33 to 36 | Cc1cc(C(C)(C)C)nc(C(C)(C)C)c1
83 | 48 | C=CCc1cc(Cl)ccc1O
84 | 119 to 120 | N#Cc1ccccc1N=C=S
85 | 245 | O=C(O)C1=Cc2cc(Cl)ccc2OC1
86 | 192 to 193 | CC1C/C(=C\c2ccc([N+](=O)[O-])cc2)C(=O)/C(=C/c2ccc([N+](=O)[O-])cc2)C1 (stereo unspecified)
87 | 206 to 208 | Clc1ccc(Cc2c(N=Cc3ccc4c(c3)OCO4)n[nH]c2N=Cc2ccc3c(c2)OCO3)cc1
88 | 62 | CCN(CC)c1ccc(C=O)c(O)c1
89 | 164 | CCOC(=O)C1=C(C)NC(C)=C(C(=O)OCC)C1c1ccco1
90 | 300 to 302 | Cn1cnc2c(N)ncnc21
91 | 72 | COc1c(F)cc(N)cc1Br
92 | 233 | CC(C)CC(NC(=O)C(O)C(N)Cc1ccccc1)C(=O)O (stereo unspecified)

Row | melting point [°C] | SMILES
93 | 117 to 122 | CC1C(=O)NC(=O)C1(C)C (stereo unspecified)
94 | 136 to 138 | Nc1nsc(-c2ccccc2)n1
95 | 256 | CC(=O)N1C(=O)/C(=C/c2ccccc2)c2cc3c(cc21)N(C(C)=O)C(=O)/C3=C/c1ccccc1
96 | 95 | CC(=O)CCc1cc2c(cc1[N+](=O)[O-])CCC(C)N2 (stereo unspecified)
97 | 209 to 210 | N#Cc1ccc(NC(N)=S)cc1
98 | 185 to 187 | COc1cc(CNC(=O)c2[nH]c3ccccc3c2CCO)cc(OC)c1
99 | -19 | CCN(CCO)c1cccc(C)c1
100 | 185 to 190 | NC(=S)c1cccnc1
101 | 230 | OC1C(O)C(O)C(O)C(O)C1O (stereo unspecified)
102 | 219 | c1ccc(SCc2ccc(CN3CCOCC3)cc2)cc1
103 | 160 to 167 | O=Cc1cccc2cccc(C(=O)O)c12
104 | 40 | N#Cc1cccc(I)c1
105 | 274 to 277 | Cc1cc(C(=O)O)cc(Cl)c1N
106 | 357 | Cn1cnc2c1c(=O)[nH]c(=O)n2C
107 | 178 | CCN1CCCC1CNC(=O)c1cc(S(N)(=O)=O)ccc1OC (stereo unspecified)
108 | 151 | O=C(C1=NOC2C(=O)N(c3ccc(F)cc3)C(=O)C12)c1ccc(Cl)cc1 (stereo unspecified)
109 | 200 | COC1CC2C3(C)CCCC2(COC3O)C2C(OC(C)=O)CC3C(C)C(=O)C12C3O (stereo unspecified)
110 | 127 | Cc1cc([N+]([O-])=Nc2ccccc2)c(C(C)C)cc1[N+]([O-])=Nc1ccccc1
111 | -7.6 | CCCCCCCCOCCCCCCCC
112 | 93 | Cc1ccc(C(=S)N2CCCCC2)cc1

Row | SMILES | melting point [°C]
113 | CC(CC(=O)OOC(C)(C)C)CC(C)(C)C (stereo unspecified) | -30
114 | CNC(=O)Oc1ccc2c(c1)C1(C)CCOC1N2C (stereo unspecified) | 124
115 | NCCc1c[nH]c2ccc(O)cc12 | 168
116 | Cc1cccc([N+](=O)[O-])c1C | 15
117 | O=C1C=C2C(=CCOC2O)O1 (stereo unspecified) | 111
118 | N#CO | -86
119 | CCNc1nc(Cl)nc(NC(C)(C)C#N)n1 | 168
120 | COc1ccc(C(N)C(N)c2ccc(OC)cc2)cc1 (stereo unspecified) | 148 to 152
121 | Nc1ccccc1C(=O)OCc1ccccc1 | 76 to 78
122 | O=C(O)C(c1ccc(Cl)cc1)c1ccc(Cl)cc1 | 168
123 | CC1(C)C(C(=O)OC(C#N)c2cccc(Oc3ccccc3)c2)C1(C)C (stereo unspecified) | 47.5
124 | COc1cc(F)c(F)cc1CBr | 42
125 | O=C1OC(Cl)c2ccccc21 (stereo unspecified) | 60
126 | CC(C)OC(=O)Nc1cccc(Cl)c1 | 42
127 | CN(C)C(=O)Nc1ccc(-n2nc(C(C)(C)C)oc2=O)c(Cl)c1 | 193
128 | O=C(O)C(F)F | -1
129 | c1ccc2c(C3CCNCC3)c[nH]c2c1 | 222 to 223
130 | N#Cc1sc2c(=O)c3ccccc3c(=O)c=2sc1C#N | 225
131 | O=[N+]([O-])CC(O)C(Cl)(Cl)Cl (stereo unspecified) | 45.5
